Test results as given in patent US11084829B2, “Ubiquitin-specific-processing protease 7 (USP7) modulators and uses thereof” (RAPT THERAPEUTICS, INC., priority 2018, dated 2021).

Tests used:
Type in all cases: cell-based
M07e = test: Cell viability (CellTiter-Glo), M07e; conditions: M-07e, AML, p53 wild-type
Method: (§1) CHP-134 was purchased from Sigma Aldrich, MOLM-13 was purchased from AddexBio, and NB-1 was purchased from Sekisui XenoTech. All other cell lines were purchased from American Type Culture Collection. For all cell lines, identity was confirmed by short tandem repeat profiling and culturing was performed in recommended growth medium. For studies evaluating cellular effects of compound treatment, 250 to 2,000 cells in 40 μl of recommended medium were seeded per well in 384-well plates (Corning 3764). DMSO-solubilized compounds were added in duplicate in a two-fold dilution series using a D300e Digital Dispenser (Hewlett-Packard). Following a 5-day incubation, cell viability was measured using CellTiter-Glo (Promega) following the manufacturer's instructions. Luminescence was measured using a CLARIOstar plate reader (BMG LABTECH) and normalized to that of DMSO-treated cells. IC50 values were determined by non-linear regression using a 4-parameter fit in Prism (GraphPad Software). Inhibitor profiling of the 430-cell line panel was conducted and analyzed similarly.
(§2) USP7 inhibition by the compounds of Examples 31 and 124 reduced the viability of several p53-wild type blood cancer cell lines, including M07e, OCI-AML5 and MOLM13, in vitro as shown in the following Table 3. Idasanutlin was used as a positive control, and as expected these cell lines were also sensitive to this compound.

OCI-AML5 = test: Cell viability (CellTiter-Glo), OCI-AML5; conditions: Homo sapiens, OCI-AML-5, p53 wild-type
Method: as §1, §2

MOLM13 = test: Cell viability (CellTiter-Glo), MOLM13; conditions: Homo sapiens, MOLM-13; MOLM13, AML, p53 wild-type
Method: as §1, §2

EOL-1 = test: Cell viability (CellTiter-Glo), EOL-1; conditions: Homo sapiens, EOL1; EOL-1, AML, p53 wild-type
Method: as §1, §2

MOLP8 = test: Cell viability (CellTiter-Glo), MOLP8; conditions: Homo sapiens, MOLP-8; MOLP8, MM, p53 wild-type
Method: as §1, §2

NCI-H929 = test: Cell viability (CellTiter-Glo), NCI-H929; conditions: Homo sapiens; NCI-H929, MM, p53 wild-type
Method: as §1, §2

MM.1S = test: Cell viability (CellTiter-Glo), MM.1S; conditions: Homo sapiens, MM1.S, p53 wild-type
Method: as §1, §2

SH-SY5Y = test: Cell viability (CellTiter-Glo), SH-SY5Y; conditions: Homo sapiens, neuroblastoma, MYC amplified, p53 wild-type
Method: as §1
(§3) USP7 has been reported to stabilize MYCN (also referred to as MYCN proto-oncogene, a gene that is a member of the MYC family which is over-expressed in a variety of tumors). Since MYCN amplification is an established driver mutation in neuroblastoma, the effect of USP7 inhibition on a panel of p53 wild-type, MYCN- or MYC-amplified neuroblastoma cell lines was tested. The USP7 inhibitors of Examples 31 and 124 reduced viability of all three MYCN-amplified and two MYC-amplified neuroblastoma cell lines tested as shown in Table 4. Idasanutlin was used as a positive control, and as expected these cell lines were also sensitive to this compound.

SK-N-SH = test: Cell viability (CellTiter-Glo), SK-N-SH; conditions: Homo sapiens, neuroblastoma, MYC amplified, p53 wild-type
Method: as §1
(§4) USP7 has been reported to stabilize MYCN (also referred to as MYCN proto-oncogene, a gene that is a member of the MYC family which is over-expressed in a variety of tumors). […]

IMR-32 = test: Cell viability (CellTiter-Glo), IMR-32; conditions: Homo sapiens; IMR-32, neuroblastoma, MYCN amplified, p53 wild-type
Method: as §1, §4

CHP-134 = test: Cell viability (CellTiter-Glo), CHP-134; conditions: Homo sapiens; CHP-134, neuroblastoma, MYCN amplified, p53 wild-type
Method: as §1, §3

NB-1 = test: Cell viability (CellTiter-Glo), NB-1; conditions: Homo sapiens, NB1; NB-1, neuroblastoma, MYCN amplified, p53 wild-type
Method: as §1, §3

H526 = test: Cell viability (CellTiter-Glo), H526
Method: as §1
(§5) In addition to the many p53 wild-type cell lines in the cell line panel that were sensitive to USP7 inhibition, a subset of p53 mutant cell lines that were inhibited by our USP7 inhibitors were identified and are shown in Table 5.
The effect of pharmacological inhibition of USP7 on the viability of the p53 mutant small cell lung cancer cell line, H526 was further evaluated. […] In contrast, idasanutlin, whose inhibitory effect is dependent on a functional p53 pathway, had no effect.

EBC-1 = test: Cell viability (CellTiter-Glo), EBC-1; conditions: Homo sapiens; EBC-1, lung, squamous cell carcinoma, p53-mutant
Method: as §1, §5

NCI-H820 = test: Cell viability (CellTiter-Glo), NCI-H820; conditions: NCI-H820, lung, papillary adenocarcinoma, p53-mutant
Method: as §1, §5

NCI-H2009 = test: Cell viability (CellTiter-Glo), NCI-H2009; conditions: Homo sapiens; NCI-H2009, lung, adenocarcinoma, p53-mutant
Method: as §1, §5

HUH-7 = test: Cell viability (CellTiter-Glo), HUH-7; conditions: Homo sapiens; HUH-7, hepatocellular carcinoma, p53-mutant
Method: as §1, §5

MHCC97-H = test: Cell viability (CellTiter-Glo), MHCC97-H; conditions: Homo sapiens, MHCC97H, hepatocellular carcinoma, p53-mutant
Method: as §1, §5

NCI-N87 = test: Cell viability (CellTiter-Glo), NCI-N87; conditions: Homo sapiens; NCI-N87, gastric, p53-mutant
Method: as §1, §5

JJN-3 = test: Cell viability (CellTiter-Glo), JJN-3; conditions: Homo sapiens; JJN-3, multiple myeloma, p53-mutant
Method: as §1, §5

HCC1806 = test: Cell viability (CellTiter-Glo), HCC1806; conditions: Homo sapiens; HCC1806, breast, triple-negative, p53-mutant
Method: as §1, §5

HCC1937 = test: Cell viability (CellTiter-Glo), HCC1937; conditions: Homo sapiens; HCC1937, breast, triple-negative, BRCA1 mutant, p53-mutant
Method: as §1, §5

LA-N-2 = test: Cell viability (CellTiter-Glo), LA-N-2; conditions: LA-N-2, neuroblastoma, MYCN-amplified, p53-mutant
Method: as §1, §5

SK-N-DZ = test: Cell viability (CellTiter-Glo), SK-N-DZ; conditions: Homo sapiens, neuroblastoma, MYCN-amplified, p53-mutant
Method: as §1, §5

H526 cells [1] = test: Compound synergy (Bliss independence) in H526 cells
Method: as §1
Cancer Cell Line Encyclopedia (CCLE) mutation data was downloaded from https://data.broadinstitute.org/ccleiCCLE_DepMap_18Q2_maf_20180502.txt.gz. Genes were considered mutated if they were annotated in CCLE as containing variants that were either a TCGA Hotspot, a COSMIC Hotspot, or a deleterious variant. Genes with at least 6 mutated cell lines out of the 397 cell lines that overlapped with the cell line screening panel were tested one gene at a time in linear models or coordinately in multivariate models where the fraction cell signal at 1 μM compound was the dependent variable. For compound synergy analysis, a Bliss-independence model was used. Briefly, the products of the fraction of maximal cell signal for each of the tested compounds alone were calculated as the expected signal in the absence of any compound interaction. The log2 of the ratio of expected:observed signal was calculated to indicate synergy (positive) or interference (negative) interactions. For in vivo studies, interval-censored survival analysis was performed using the icenReg package (reference: https://cran.r-project.org/web/packages/icenReg/citation.html), using the “ic_par” parametric regression model with proportional hazards and a Weibull distribution.
Tests were conducted to determine whether the USP7 inhibitor 3-((7-(5-chloro-3-methyl-2-(((R)-morpholin-2-yl)methyl)phenyl)thieno[3,2-b]pyridin-2-yl)methyl)-6,6-dimethyl-3-azabicyclo[3.1.0]hexane-2,4-dione potentiates the activity of DNA-damaging agents commonly used for small cell lung cancer chemotherapy, namely carboplatin, doxorubicin, and the PARP inhibitor olaparib.
The effect of combining the USP7 inhibitor 3-((7-(5-chloro-3-methyl-2-(((R)-morpholin-2-yl)methyl)phenyl)thieno[3,2-b]pyridin-2-yl)methyl)-6,6-dimethyl-3-azabicyclo[3.1.0]hexane-2,4-dione with the PIM kinase inhibitor AZD 1208, the PI3K inhibitor pictilisib and the PI3K inhibitor taselisib in the p53 mutant H526 cell line was tested. […] Both PIM and PI3K promote the activity of mammalian target of rapamycin (mTOR), which regulates cellular protein translation and controls phosphorylation of S6 at the Ser235/236 site.

[2] = system: phosphorylated histone H2AX (γ-H2AX); test: γ-H2AX measurement (flow cytometry)
Method: (§6) For Western blotting, compound-treated cells were lysed in RIPA lysis buffer (ThermoScientific) containing Halt Protease and Phosphatase Inhibitor Cocktail (Life Technologies). Lysates were quantified using the BCA protein assay (Pierce) and equivalent protein was separated by SDS-PAGE (4-12%, ThermoScientific). Following electrophoresis, proteins were transferred to PVDF membranes. […] Caspase activation assays were performed on compound-treated cells using the Caspase-Glo 3/7 Assay Kit (Promega) according to the manufacturer's protocol, and luminescence was measured using a CLARIOstar plate reader (BMG LABTECH). […] Data were collected using FACSCanto (Becton Dickinson) and Attune (Thermo Fisher Scientific) flow cytometers and analyzed with FlowJo software (FlowJo LLC). […] Lysates were quantified using the BCA protein assay (Pierce) and equivalent protein was used in the PathScan Phospho-S6 Ribosomal Protein (Ser235/236) Sandwich ELISA Kit (Cell Signaling) according to the manufacturer's protocol. Absorbance was measured using the Spectramax 300 plate reader (Molecular Devices). […]

[3] = system: phosphorylated S6 (Ser235/236); test: Phospho-S6 ELISA; conditions: treatment with the compound alone
Method: as §6

H526 cells [4] = test: Apoptosis (caspase-3/7 induction, sub-G1 population) in H526 cells; conditions: starting 72 hours post treatment, data not shown
Method: as §6

H526 cells [5] = test: RNASeq transcriptomic profiling and gene set enrichment in H526 cells; conditions: treatment for 24 or 48 hours
Method: RNA was extracted from approximately 1 million cells using the Allprep DNA/RNA Mini Kit (Qiagen). Whole transcriptome non-stranded libraries were prepared using the TruSeq RNA Library Prep Kit v2 (Illumina). Sequencing was performed on Illumina NovaSeq using paired-end mode, 200 cycles, targeting 40 million reads per sample, by MedGenome. Sequencing results were processed on the Seven Bridges Genomics platform through Kallisto Quant (version 0.43.1) aligning to the gencode.v27 transcript reference. Aligned reads were imported by tximport (version 1.10.1) and Treatment fold change and significance were calculated with DESeq2 (version 1.22.2) with an experimental design of “˜Time+Treatment+Time: Treatment” on genes with at least 10 counts. Shrunk log 2 fold changes (lfcShrink function, type=“apeglm”) were used for significance calculation.
In order to identify pathways impacted by USP7 inhibition, RNASeq was used to profile transcriptomic changes in H526 cells following treatment with the USP7 inhibitor 3-((7-(5-chloro-3-methyl-2-(((R)-morpholin-2-yl)methyl)phenyl)thieno[3,2-b]pyridin-2-yl)methyl)-6,6-dimethyl-3-azabicyclo[3.1.0]hexane-2,4-dione for 24 or 48 hours. […] Measurement of transcriptional changes prior to 72 hours should thus uncover programs triggered by USP7 inhibition without being confounded by apoptosis pathways themselves. […]

COc1cc(C(=O)O)ccc1NC(=O)[C@@H]1N[C@@H](CC(C)(C)C)[C@](C#N)(c2ccc(Cl)cc2F)[C@H]1c1cccc(Cl)c1F [Idasanutlin, reference compound]
CC50 (M07e): 30 nM
CC50 (OCI-AML5): 40 nM
CC50 (MOLM13): 20 nM
CC50 (EOL-1): 50 nM
CC50 (MOLP8): 300 nM
CC50 (NCI-H929): 200 nM
CC50 (MM.1S): 20 nM
CC50 (SH-SY5Y): 100 to 500 nM
CC50 (SK-N-SH): 200 nM
CC50 (IMR-32): 240 nM
CC50 (CHP-134): 10 nM
CC50 (NB-1): 100 nM
effect on viability of H526 (H526; H526, p53 mutant small cell lung cancer, in vitro): had no effect
CC50 (H526; Homo sapiens, NCI-H526, H526, lung, small cell, p53-mutant, read-out: CC50): 6500 nM
CC50 (EBC-1): 16200 nM
CC50 (NCI-H820): 9700 nM
CC50 (NCI-H2009): > 25000 nM
CC50 (HUH-7): > 25000 nM
CC50 (MHCC97-H): > 25000 nM
CC50 (NCI-N87): 8600 nM
CC50 (JJN-3): > 25000 nM
CC50 (HCC1806): 7500 nM
CC50 (HCC1937): 7100 nM
CC50 (LA-N-2): 5300 nM
CC50 (SK-N-DZ): > 12500 nM

Cc1cc(Cl)cc(-c2ccnc3cc(CN4C(=O)C5C(C4=O)C5(C)C)sc23)c1C[C@@H]1CNCCO1 (stereo partly drawn) [3-((7-(5-chloro-3-methyl-2-(((R)-morpholin-2-yl)methyl)phenyl)thieno[3,2-b]pyridin-2-yl)methyl)-6,6-dimethyl-3-azabicyclo[3.1.0]hexane-2,4-dione]
synergy with carboplatin (H526 cells [1]; combination with carboplatin): modest synergy
synergy with doxorubicin (H526 cells [1]; combination with doxorubicin): modest synergy
synergy with olaparib (H526 cells [1]; combination with the PARP inhibitor olaparib): modest synergy
synergy when dosed with itself (H526 cells [1]; compound dosed with itself (control)): no synergy was observed
synergy with pictilisib (H526 cells [1]; p53 mutant, combination with the PI3K inhibitor pictilisib): strongly synergized
synergy with taselisib (H526 cells [1]; p53 mutant, combination with the PI3K inhibitor taselisib): strongly synergized
synergy with AZD 1208 (H526 cells [1]; p53 mutant, combination with the PIM kinase inhibitor AZD 1208): strongly synergized
levels of phosphorylated histone H2AX (γ-H2AX) ([2]; USP7 inhibitor alone): did not increase levels of phosphorylated histone H2AX (γ-H2AX)
levels of γ-H2AX ([2]; combination of the USP7 inhibitor and carboplatin): increased γ-H2AX
levels of phosphorylated S6 (Ser235/236) [3]: decreased levels of phosphorylated S6 (Ser235/236)
apoptosis (caspase-3/7 induction, sub-G1 population) (H526 cells [4]): induced apoptosis in H526 cells in a dose-dependent manner
transcriptomic changes (RNASeq) (H526 cells [5]): upregulation of a large number of genes normally silenced by the polycomb repressive complex 2 (PRC2)
